From patent publication US10160762B2, “6-alkyl dihydropyrazolopyrimidinone compounds as PDE2 inhibitors” (Merck Sharp & Dohme Corp., priority 2015, dated 2018)
Like-named read-outs stand apart in the source and are kept apart here.

Target: T1, human PDE2A1 (Homo sapiens, UniProt O00408)
T1 construct: GST; purchased BPS Bioscience (San Diego, Calif.) 60020; host or cells: insect cells
Assay: IMAP FP PDE assay, human PDE2A1
Assay type: biochemical
In short: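 GST-tagged human PDE2A1 from insect cells; substrate 50 nM FAM-cAMP containing 1000 nM cGMP in Tris pH 7.2/MgCl2/DTT buffer, enzyme giving 20% conversion. 60 min at room temperature, IMAP binding reagent, fluorescence polarization read. Apparent Ki from FP readings using apparent KM 10,000 nM; ten-point 3-fold titrations.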

[1] = Lab A, read-out: Human PDE2 Ki (nM) Lab A
[2] = Lab B, read-out: Human PDE2 Ki (nM) Lab B

T1 sequence (O00408 1-920 isoform O00408-2): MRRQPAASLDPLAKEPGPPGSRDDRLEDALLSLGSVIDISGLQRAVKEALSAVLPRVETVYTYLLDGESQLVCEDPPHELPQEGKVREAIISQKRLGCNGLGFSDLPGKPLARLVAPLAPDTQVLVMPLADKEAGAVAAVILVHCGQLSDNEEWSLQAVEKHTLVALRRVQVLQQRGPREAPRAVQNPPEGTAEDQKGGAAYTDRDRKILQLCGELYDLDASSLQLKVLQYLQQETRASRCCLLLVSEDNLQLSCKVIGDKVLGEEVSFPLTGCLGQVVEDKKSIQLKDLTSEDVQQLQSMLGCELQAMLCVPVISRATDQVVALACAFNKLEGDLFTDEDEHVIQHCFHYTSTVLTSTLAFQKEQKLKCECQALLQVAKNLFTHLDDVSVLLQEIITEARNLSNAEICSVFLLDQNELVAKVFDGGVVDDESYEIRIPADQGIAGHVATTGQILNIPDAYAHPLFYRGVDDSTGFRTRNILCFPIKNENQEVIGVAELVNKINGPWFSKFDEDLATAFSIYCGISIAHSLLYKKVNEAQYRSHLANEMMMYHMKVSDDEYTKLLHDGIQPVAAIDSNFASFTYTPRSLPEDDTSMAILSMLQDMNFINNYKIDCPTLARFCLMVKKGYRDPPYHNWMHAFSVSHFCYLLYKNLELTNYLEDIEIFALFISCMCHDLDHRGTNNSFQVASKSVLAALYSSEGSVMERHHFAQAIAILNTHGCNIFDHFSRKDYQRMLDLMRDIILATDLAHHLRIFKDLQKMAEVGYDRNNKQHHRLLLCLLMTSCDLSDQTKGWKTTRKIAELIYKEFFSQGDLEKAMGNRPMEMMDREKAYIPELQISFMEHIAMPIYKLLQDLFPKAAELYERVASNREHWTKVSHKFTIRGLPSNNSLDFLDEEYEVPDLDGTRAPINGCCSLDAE

Ki [1]	Ki [2]	SMILES
1.8 nM	5.3 nM	Cc1nc2c(c(CO)nn2C(C)c2ccc(C(F)(F)F)c(F)c2)c(=O)[nH]1 (stereo not drawn) [Example 1, 1-(1-(3-Fluoro-4-(trifluoromethyl)phenyl)ethyl)-3-(hydroxymethyl)-6-methyl-1H-pyrazolo[3,4-d]pyrimidin-4(5H)-one]
18 nM	28 nM	Cc1ccc(C(C)n2nc(CO)c3c(=O)[nH]c(C)nc32)cc1 (stereo not drawn) [Example 2, 3-(Hydroxymethyl)-6-methyl-1-(1-p-tolylethyl)-1H-pyrazolo[3,4-d]pyrimidin-4(5H)-one]
	3.7 nM	Cc1nc2c(c(CO)nn2C(C)c2ccc(C3CC3)cc2)c(=O)[nH]1 (stereo not drawn) [Example 3, 1-(1-(4-Cyclopropylphenl)ethyl)-3-(hydroxymethyl)-6-methyl-1H-pyrazolo[3,4-d]pyrimidin-4(5H)-one]
4.6 nM	5.9 nM	Cc1nc2c(c(CO)nn2C(C)c2ccc(OC(F)(F)F)cc2)c(=O)[nH]1 (stereo not drawn) [Example 4]
0.56 nM	0.74 nM	Cc1nc2c(c(CO)nn2C(c2ccc(C(F)(F)F)cc2)C(C)C)c(=O)[nH]1 (stereo not drawn) [Example 5, 3-(Hydroxymethyl)-6-methyl-1-(2-methyl-1-(4-(trifluoromethyl)phenyl)propyl)-1H-pyrazolo[3,4-d]pyrimidin-4(5H)-one]
	3.1 nM	Cc1nc2c(c(CO)nn2C(c2ccc(C(F)(F)F)cc2)C(F)(F)F)c(=O)[nH]1 (stereo not drawn) [Example 6, 3-(Hydroxymethyl)-6-methyl-1-(2,2,2-trifluoro-1-(4-(trifluoromethyl)phenyl)ethyl)-1H-pyrazolo[3,4-d]pyrimidin-4(5H)-one]
11 nM	17 nM	Cc1nc2c(c(CO)nn2C(C)c2ccc(C(F)(F)F)cc2)c(=O)[nH]1 (stereo not drawn) [Example 7, 3-(Hydroxymethyl)-6-methyl-1-(1-(4-(trifluoromethyl)phenyl)ethyl)-1H-pyrazolo[3,4-d]pyrimidin-4(5H)-one]
100 nM	105 nM	Cc1nc2c(c(CO)nn2Cc2ccc(C(F)(F)F)cc2)c(=O)[nH]1 [Example 8, 3-(Hydroxymethyl)-6-methyl-1-[4-(trifluoromethyl)benzyl]-1,5-dihydro-4H-pyrazolo[3,4-d]pyrimidin-4-one]
27 nM	60 nM	Cc1nc2c(c(CO)nn2C(C)(C)c2ccc(C(F)(F)F)cc2)c(=O)[nH]1 [Example 9, 3-(Hydroxymethyl)-6-methyl-1-{1-methyl-1-[4-(trifluoromethyl)phenyl]ethyl}-1,5-dihydro-4H-pyrazolo[3,4-d]pyrimidin-4-one]
	1.6 nM	Cc1nc2c(c(CO)nn2C(c2ccc(C(F)(F)F)cc2)C2CC2)c(=O)[nH]1 (stereo not drawn) [Example 28, 1-(Cyclopropyl(4-(trifluoromethyl)phenyl)methyl)-3-(hydroxymethyl)-6-methyl-1H-pyrazolo[3,4-d]pyrimidin-4(5H)-one]
4.6 nM	12 nM	Cc1nn(C(C)c2ccc(C(F)(F)F)cc2)c2nc(Cc3cccc(O)c3)[nH]c(=O)c12 (stereo not drawn) [Example 30, 6-(3-Hydroxybenzyl)-3-methyl-1-(1-(4-(trifluoromethyl)phenyl)ethyl)-1H-pyrazolo[3,4-d]pyrimidin-4(5H)-one]
43 nM		Cc1nn(C(C)c2ccc(C(F)(F)F)cc2)c2nc(Cc3ccccc3O)[nH]c(=O)c12 (stereo not drawn) [Example 31, 6-(2-Hydroxybenzyl)-3-methyl-1-(1-(4-(trifluoromethyl)phenyl)ethyl)-1H-pyrazolo[3,4-d]pyrimidin-4(5H)-one]
105 nM		CCOCCc1nc2c(c(C)nn2C(C)c2ccc(C(F)(F)F)cc2)c(=O)[nH]1 (stereo not drawn) [Example 35, 6-(2-Ethoxyethyl)-3-methyl-1-(1-(4-(trifluoromethyl)phenyl)ethyl)-1H-pyrazolo[3,4-d]pyrimidin-4(5H)-one]
28 nM		CCc1nc2c(c(C)nn2C(C)c2ccc(C(F)(F)F)cc2)c(=O)[nH]1 (stereo not drawn) [Example 38, 6-Ethyl-3-methyl-1-{1-[4-(trifluoromethyl)phenyl]ethyl}-1,5-dihydro-4H-pyrazolo[3,4-d]pyrimidin-4-one]
84 nM		Cc1nn(C(C)c2ccc(C(F)(F)F)cc2)c2nc(C3CCC3)[nH]c(=O)c12 (stereo not drawn) [Example 39, 6-Cyclobutyl-3-methyl-1-{1-[4-(trifluoromethyl)phenyl]ethyl}-1,5-dihydro-4H-pyrazolo[3,4-d]pyrimidin-4-one]
197 nM		Cc1nn(C(C)c2ccc(C(F)(F)F)cc2)c2nc(C3CCCC3)[nH]c(=O)c12 (stereo not drawn) [Example 40, 6-Cyclopentyl-3-methyl-1-{1-[4-(trifluoromethyl)phenyl]ethyl}-1,5-dihydro-4H-pyrazolo[3,4-d]pyrimidin-4-one]
35 nM		CCCc1nc2c(c(C)nn2C(C)c2ccc(C(F)(F)F)cc2)c(=O)[nH]1 (stereo not drawn) [Example 41, 3-Methyl-6-propyl-1-{1-[4-(trifluoromethyl)phenyl]ethyl}-1,5-dihydro-4H-pyrazolo[3,4-d]pyrimidin-4-one]
40 nM		Cc1nn(C(C)c2ccc(C(F)(F)F)cc2)c2nc(C3CC3)[nH]c(=O)c12 (stereo not drawn) [Example 42, 6-Cyclopropyl-3-methyl-1-{1-[4-(trifluoromethyl)phenyl]ethyl}-1,5-dihydro-4H-pyrazolo[3,4-d]pyrimidin-4-one]
132 nM		Cc1nn(C(C)c2ccc(C(F)(F)F)cc2)c2nc(C(C)C)[nH]c(=O)c12 (stereo not drawn) [Example 43, 3-Methyl-6-(1-methylethyl)-1-{1-[4-(trifluoromethyl)phenyl]ethyl}-1,5-dihydro-4H-pyrazolo[3,4-d]pyrimidin-4-one]
2.1 nM		COc1ccc(Cc2nc3c(c(C)nn3C(C)c3ccc(C(F)(F)F)cc3)c(=O)[nH]2)cc1OC (stereo not drawn) [Example 44, 6-(3,4-Dimethoxybenzyl)-3-methyl-1-{1-[4-(trifluoromethyl)phenyl]ethyl}-1,5-dihydro-4H-pyrazolo[3,4-d]pyrimidin-4-one]
22 nM		COc1cccc(Cc2nc3c(c(C)nn3C(C)c3ccc(C(F)(F)F)cc3)c(=O)[nH]2)c1 (stereo not drawn) [Example 45, 6-(3-Methoxybenzyl)-3-methyl-1-{1-[4-(trifluoromethyl)phenyl]ethyl}-1,5-dihydro-4H-pyrazolo[3,4-d]pyrimidin-4-one]
8.6 nM		COc1ccc(Cc2nc3c(c(C)nn3C(C)c3ccc(C(F)(F)F)cc3)c(=O)[nH]2)cc1 (stereo not drawn) [Example 46, 6-(4-Methoxybenzyl)-3-methyl-1-{1-[4-(trifluoromethyl)phenyl]ethyl}-1,5-dihydro-4H-pyrazolo[3,4-d]pyrimidin-4-one]
17 nM		COc1cccc(-c2nc3c(c(C)nn3C(C)c3ccc(C(F)(F)F)cc3)c(=O)[nH]2)c1 (stereo not drawn) [Example 47, 6-(3-Methoxyphenyl)-3-methyl-1-{1-[4-(trifluoromethyl)phenyl]ethyl}-1,5-dihydro-4H-pyrazolo[3,4-d]pyrimidin-4-one]
21 nM		COCc1nc2c(c(C)nn2C(C)c2ccc(C(F)(F)F)cc2)c(=O)[nH]1 (stereo not drawn) [Example 48, 6-(Methoxymethyl)-3-methyl-1-{1-[4-(trifluoromethyl)phenyl]ethyl}-1,5-dihydro-4H-pyrazolo[3,4-d]pyrimidin-4-one]
5.4 nM		Cc1nn(C(C)c2ccc(C(F)(F)F)cc2)c2nc(-c3ccco3)[nH]c(=O)c12 (stereo not drawn) [Example 49, 6-Furan-2-yl-3-methyl-1-{1-[4-(trifluoromethyl)phenyl]ethyl}-1,5-dihydro-4H-pyrazolo[3,4-d]pyrimidin-4-one]
